Assay results published in patent US5434295A (priority 1994, dated 1995).
Entries after “also recorded” stand apart in the source; their conditions may differ.

Test system: cerebral ischemia in gerbils
Assay: Neurobehavioral scores in gerbils after bilateral common carotid artery occlusion
Assay type: in vivo, Mongolian gerbils
Description: Inhibition of ischemic neuronal damage in gerbils: Temporary blockage of the blood supply to the gerbil brain by surgical ligation of the two major arteries (common carotids) results in transient global forebrain ischemia. Temporary global ischemia produces a delayed, selective degeneration of neurons in the hippocampus, a brain structure essential for memory formation. The ability of various compounds to prevent hippocampal cell loss and the attendant memory deficits is considered a measure of their potency as neuroprotectants in ischemic conditions.
The data are presented as average differential scores between the initial score obtained 5 hrs post-ischemia and that obtained on each successive day. The drug was administered intravenously 30 min post-ischemia.
Mongolian gerbils (male), 65-70 gr (Tumblebrook Farm) underwent the ischemic procedure while anaesthetised with equithisine.
Common carotid arteries (CCA) were isolated and 3-0 silk suture material was positioned loosely round them. The tips of each loop were tied together, and the suture material was buried beside the trachea. The ventral neck incision was then sutured. In the following day, they were lightly anaesthetised with ether, the neck skin wounds were opened and both CCA were occluded for 10 minutes using small artery clips. During the ischemia and until the animals recovered (regaining righting reflexes), they were maintained in a warm state (36.5°-37.5° C. rectal temperature). Thirty minutes following onset of ischemia, animals were reanaesthetised (ether) and the appropriate drug was administered I.V. via the femoral vein.
Clinical evaluation. […] This was done every 24 hours, for the entire 96-hour period. […]
Statistics. Neuroclinical appearance was analyzed using Wilcoxon Rank Sum Test. The histopathological evaluation was analyzed using One-Way ANOVA followed by Duncan's Test.
Gerbils were scored for their clinical symptoms following the ischemic insult according to the system described by Rudolphi et al. (Table 4). Each animal was evaluated daily over 4 consecutive days (Day 1 being the day of CCA occlusion). […]

CCCCCCC(C)(C)c1cc(OC(C)=O)c([C@H]2C=C(C(=O)O)[C@H]3C[C@@H]2C3(C)C)c(OC(C)=O)c1 [(+)-4-[4-DMH-2,6 diacetoxyphenyl]-2-carboxy-6,6-dimethylbicyclo[3.1.1]hept-2-en]
neurobehavioral scores / clinical symptoms (8 mg/kg i.v. 30 min post-ischemia): improvement in neurobehavioral scores; also recorded: statistically significant improvement compared to controls
animals showing no signs (three days post-ischemia): 90%
animals showing only mild signs (three days post-ischemia): 10%
